The values below come from US20230287061A1, “NEW ANTIMICROBIAL PEPTIDES” (priority 2020, published 2023).

Ends that are not written are not given here.

In this assay the test system is B. cereus.

Usually MIC stands for the least concentration at which growth counts as inhibited.

In turn, ALLKVLFSWFRKHNSRRKNLPAKN [Seq ID no2] yielded a minimal inhibitory concentration (MIC) of 256 µg/mL.
